Data from patent publication US20160060222A1, “AMINO-QUINOLINES AS KINASE INHIBITORS” (GlaxoSmithKline Intellectual Property Development Limited, priority 2011, published 2016).
Where a name gives a salt, the structure may show the parent alone.

target: T1, RIPK2 (Homo sapiens, UniProt O43353); test: Fluorescent polarization based binding assay at the ATP binding pocket of RIPK2; conditions: full length FLAG His tagged RIPK2; competition with fluorescently labeled ATP competitive ligand (5 nM); mean of a minimum of 2 experiments; read-out: mean pIC50 (RIP2 kinase, fluorescent polarization binding assay) (converted)
T1 construct: Full length FLAG His tagged RIPK2 was purified from a Baculovirus expression system; FLAG (N); 6His (N); made in house; host or cells: Spodoptera frugiperda (Sf9) insect cells, baculovirus
Description: A fluorescent polarization based binding assay was developed to quantitate interaction of novel test compounds at the ATP binding pocket of RIPK2, by competition with a fluorescently labeled ATP competitive ligand. Full length FLAG His tagged RIPK2 was purified from a Baculovirus expression system and was used at a final assay concentration of twice the KDapparent. A fluorescent labeled ligand (5-({[2-({[3-({4-[(5-hydroxy-2-methylphenyl)amino]-2-pyrimidinyl}amino)phenyl]carbonyl}amino)ethyl]amino}carbonyl)-2-(6-hydroxy-3-oxo-3H-xanthen-9-yl)benzoic acid, prepared as described below) was used at a final assay concentration of 5 nM. Both the enzyme and ligand were prepared in solutions in 50 mM HEPES pH7.5, 150 mM NaCl, 10 mM MgCl2, 1 mM DTT, and 1 mM CHAPS. Test compounds were prepared in 100% DMSO and 100 nL was dispensed to individual wells of a multiwell plate. Next, 5 ul RIPK2 was added to the test compounds at twice the final assay concentration, and incubated at room temperature for 10 minutes. Following the incubation, 5 ul of the fluorescent labeled ligand solution, was added to each reaction, at twice the final assay concentration, and incubated at room temperature for at least 10 minutes. Finally, samples were read on an instrument capable of measuring fluorescent polarization. Test compound inhibition was expressed as percent (%) inhibition of internal assay controls.
For concentration response experiments, normalized data were fit and pIC50s determined using conventional techniques. For example, the following four parameter logistic equation may be used: y=A+(([…]))/(1+(10^x)/(10^C)^D), where: y is the % activity (% inhibition) at a specified compound concentration; A is the minimum % activity; B is the maximum % activity; C=log10(IC50); D=Hill slope; x=log10 (compound concentration [M]); and pIC50=(−C).
The pIC50s are averaged to determine a mean value, for a minimum of 2 experiments.
Full-length human RIPK2 (receptor-interacting serine-threonine kinase 2) cDNA was purchased from Invitrogen (Carlsbad, Calif., USA, Clone ID:10H6368, RIPK2-pENTR 221). […]

T1 sequence (O43353 whole entry): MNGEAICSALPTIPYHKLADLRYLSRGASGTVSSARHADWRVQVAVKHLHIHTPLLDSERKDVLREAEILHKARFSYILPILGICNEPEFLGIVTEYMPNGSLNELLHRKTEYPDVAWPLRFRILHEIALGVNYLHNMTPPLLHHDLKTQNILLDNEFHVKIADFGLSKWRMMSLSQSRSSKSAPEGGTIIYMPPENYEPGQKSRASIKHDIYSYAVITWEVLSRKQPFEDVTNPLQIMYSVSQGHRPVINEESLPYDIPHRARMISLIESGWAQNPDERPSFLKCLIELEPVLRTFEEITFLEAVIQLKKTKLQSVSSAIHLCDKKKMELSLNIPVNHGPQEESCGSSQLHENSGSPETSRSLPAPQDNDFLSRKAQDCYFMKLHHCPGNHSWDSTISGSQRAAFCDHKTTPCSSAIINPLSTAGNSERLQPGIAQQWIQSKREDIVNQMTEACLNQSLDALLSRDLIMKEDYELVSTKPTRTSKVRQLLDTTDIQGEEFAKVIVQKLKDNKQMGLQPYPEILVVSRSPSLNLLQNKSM

Row | IC50 [nM] | SMILES
1 | 398 | CS(=O)(=O)c1ccc2nccc(Nc3ccc(O)c(F)c3)c2c1 [Example 12, 2-fluoro-4-{[6-(methylsulfonyl)-4-quinolinyl]amino}phenol]
2 | 126 | CS(=O)(=O)c1ccc2nccc(Nc3n[nH]c4cc(Cl)ccc34)c2c1 [Example 75, N-(6-chloro-1H-indazol-3-yl)-6-(methylsulfonyl)-4-quinolinamine]
3 | 126 | Nc1ccc(S(=O)(=O)c2ccc3nccc(Nc4ccc5scnc5c4)c3c2)cc1 [Example 106, 6-[(4-aminophenyl)sulfonyl]-N-1,3-benzothiazol-5-yl-4-quinolinamine tetrahydrochloride]
